From article PMC6089848 (Acta Pharmaceutica Sinica. B, 2018)
Structures can show the parent of a compound that is named as a salt.

Assays:
[1] = test system: pseudotyped EBOV virus (pHIV-EBOVGP-Fluc); format: cell-based, Ebola virus (EBOV); conditions: for IC50: read-out: Anti-EBOV IC50
[2] = test system: human embryonic kidney (HEK) 293 T cells
[3] = test system: pseudotyped Vesicular Stomatitis Virus (pHIV-VSVGP-Fluc); format: cell-based, Vesicular Stomatitis Virus (VSV); conditions: read-out: Anti-VSV IC50
in vitro = conditions: human
pHIV-MARVGP-Fluc virus = test system: pHIV-MARVGP-Fluc virus; design: species or system BALB/c mice; conditions: mouse, ip

| SMILES | SI [1] | IC50 [1] [µM] | CC50 [2] [µM] | IC50 [3] [µM] | CC50 (in vitro) [µM] | reduction (bioluminescence), in vivo anti-MARV (pHIV-MARVGP-Fluc virus) |
| --- | --- | --- | --- | --- | --- | --- |
| COC(=O)CC1C2CCCN3CCCC(CN1Cc1ccc(Cl)c(Cl)c1)C23.Cl.Cl (stereo not drawn) [10d, Methyl 12N-3′,4′-dichlorobenzyl matrinic acetate dihydrochloride] | 15.3 | 10 | 153 | 123 | – | – |
| COC(=O)CCCC1C2CCCN3CCCC(CN1Cc1ccc(Cl)cc1)C23.Cl.Cl (stereo not drawn) [7a, Methyl 12N-p-chlorobenzyl matrinate dihydrochloride] | 7.87 | 25.4 | 200 | 188 | – | – |
| COC(=O)CCCC1C2CCCN3CCCC(CN1Cc1ccc(Cl)c(Cl)c1)C23.Cl.Cl (stereo not drawn) [4a, methyl 12N-3′,4′-dichlorobenzyl sophoridinate dihydrochloride] | 8.28 | 2.68 | 22.2 | 7.52 | – | – |
| CN[C@H]1CC[C@@H](c2ccc(Cl)c(Cl)c2)c2ccccc21 [Sertraline, sertraline] | – | – | – | – | 29.2 | no activity at all |
| O=C(O)CCC[C@@H]1[C@H]2CCCN3CCC[C@@H](CN1Cc1ccc(Cl)cc1)[C@@H]23 [8a, 12N-p-Chlorobenzyl matrinic acid dihydrochloride] | – | > 200 | 200 | > 200 | – | – |
| O=C(O)CC1C2CCCN3CCCC(CN1C(=O)c1ccc(Cl)cc1)C23 (stereo not drawn) [11b, 12N-p-Chlorobenzoyl matrinic acetic acid] | – | > 200 | > 200 | > 200 | – | – |
| O=C(O)CC1C2CCCN3CCCC(CN1CCCc1cc(Cl)cc(Cl)c1)C23 (stereo not drawn) [15f, 12N-3′,5′-Dichlorohydrocinnamyl matrinic acetic acid] | – | – | 83.3 | – | – | – |
| COC(=O)CC1C2CCCN3CCCC(CN1S(=O)(=O)c1ccc(Cl)cc1)C23.Cl (stereo not drawn) [10c, Methyl 12N-p-chlorobenzesulfonyl matrinic acetate hydrochloride] | >7.46 | 26.8 | > 200 | > 200 | – | – |
| O=C(O)CCCC1C2CCCN3CCCC(CN1S(=O)(=O)c1ccc(Cl)cc1)C23 (stereo not drawn) [5c, 12N-p-Chlorobenzenesulfonyl sophoridinic acid] | 17.5 | 11.4 | – | > 200 | – | – |
| O=C(O)CC1C2CCCN3CCCC(CN1Cc1ccc(Cl)cc1)C23 (stereo not drawn) [11a, 12N-p-Chlorobenzyl matrinic acetic acid] | – | > 200 | > 200 | > 200 | – | – |
| COC(=O)CCCC1C2CCCN3CCCC(CN1S(=O)(=O)c1ccc(Cl)cc1)C23 (stereo not drawn) [4c, Methyl 12N-p-chlorobenzenesulfonyl sophoridinate] | >7.59 | 2.9 | > 22 | > 22 | – | – |
| COC(=O)CCC[C@@H]1[C@H]2CCCN3CCC[C@H](CN1C(=O)c1ccc(Cl)cc1)[C@@H]23 [4b, Methyl 12N-p-chlorobenzoyl sophoridinate] | 5.12 | 39.1 | 200 | > 200 | – | – |
| O=C(O)CCCC1C2CCCN3CCCC(CN1C(=O)c1ccc(Cl)cc1)C23 (stereo not drawn) [5b, 12N-p-Chlorobenzoyl sophoridinic acid] | – | > 200 | > 200 | > 200 | – | – |
